Data from US8445449B2, “Method and peptide for regulating cellular activity” (The United States of America, as represented by the …, priority 2004, dated 2013).
Where two headings read alike, the source gives them in different places. Where no end group is shown, it is not given here.

Columns and labels:
[1] = tested on: cell viability
[2] = tested on: bacterial-induced middle ear inflammation; details: 10 μM peptide without bacteria, five mice, 3 days

Sequence: DIVKLTVYDCIRRRRRRRRR [peptide P13]
- effect on cell viability ([1]; 10 μM): no effect on cell viability
- effect of peptide alone on fluid area, cell number, tympanic membrane thickness vs PBS injected ear [2]: no differences

Sequence: ITCVDVDLIYKRRRRRRRRR [Scrambled peptide, reference compound]
- effect on cell viability [1]: no effect on cell viability
